Reference: ChEMBL document CHEMBL1131639, “Structural analysis of thrombin complexed with potent inhibitors incorporating a phenyl group as a peptide mimetic and aminopyridines as guanidine substitutes” (J Med Chem, 1998)
Where a SMILES comes first, the peptide text is derived from it.

Assays:
[1] = target: T1, Prothrombin (Homo sapiens, UniProt P00734); test: (§1) Compound was evaluated for the inhibition of thrombin
[2] = target: Integrin alpha-IIb/beta-3 (Homo sapiens, UniProt P05106+P08514); test: Compound was evaluated for inhibition against Fibrinogen Receptor.; format: protein-complex assay
[3] = target: T1, Prothrombin; test: as §1; remark: listed apart in the source

Sequence of Integrin alpha-IIb/beta-3 (P05106 27-788 limits assumed): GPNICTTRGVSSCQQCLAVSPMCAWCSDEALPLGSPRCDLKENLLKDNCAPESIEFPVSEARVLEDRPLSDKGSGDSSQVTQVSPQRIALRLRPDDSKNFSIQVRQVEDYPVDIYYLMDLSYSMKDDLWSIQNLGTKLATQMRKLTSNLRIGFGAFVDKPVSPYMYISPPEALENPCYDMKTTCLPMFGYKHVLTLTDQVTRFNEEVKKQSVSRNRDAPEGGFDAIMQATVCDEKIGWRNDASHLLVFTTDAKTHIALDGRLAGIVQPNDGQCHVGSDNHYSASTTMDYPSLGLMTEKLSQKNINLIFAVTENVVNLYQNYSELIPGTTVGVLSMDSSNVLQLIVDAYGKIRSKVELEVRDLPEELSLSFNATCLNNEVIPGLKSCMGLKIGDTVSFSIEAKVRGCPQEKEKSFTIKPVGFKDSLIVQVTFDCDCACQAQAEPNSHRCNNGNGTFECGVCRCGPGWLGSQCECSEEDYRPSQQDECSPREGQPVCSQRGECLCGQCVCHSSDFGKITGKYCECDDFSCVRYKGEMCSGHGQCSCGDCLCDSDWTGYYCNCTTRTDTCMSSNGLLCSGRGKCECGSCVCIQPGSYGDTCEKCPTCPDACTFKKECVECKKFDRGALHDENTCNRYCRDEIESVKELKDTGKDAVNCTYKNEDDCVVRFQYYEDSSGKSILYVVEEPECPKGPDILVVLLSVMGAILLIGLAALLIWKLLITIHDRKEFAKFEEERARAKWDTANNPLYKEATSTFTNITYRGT
Sequence of Integrin alpha-IIb/beta-3 (P08514 32-887 limits assumed): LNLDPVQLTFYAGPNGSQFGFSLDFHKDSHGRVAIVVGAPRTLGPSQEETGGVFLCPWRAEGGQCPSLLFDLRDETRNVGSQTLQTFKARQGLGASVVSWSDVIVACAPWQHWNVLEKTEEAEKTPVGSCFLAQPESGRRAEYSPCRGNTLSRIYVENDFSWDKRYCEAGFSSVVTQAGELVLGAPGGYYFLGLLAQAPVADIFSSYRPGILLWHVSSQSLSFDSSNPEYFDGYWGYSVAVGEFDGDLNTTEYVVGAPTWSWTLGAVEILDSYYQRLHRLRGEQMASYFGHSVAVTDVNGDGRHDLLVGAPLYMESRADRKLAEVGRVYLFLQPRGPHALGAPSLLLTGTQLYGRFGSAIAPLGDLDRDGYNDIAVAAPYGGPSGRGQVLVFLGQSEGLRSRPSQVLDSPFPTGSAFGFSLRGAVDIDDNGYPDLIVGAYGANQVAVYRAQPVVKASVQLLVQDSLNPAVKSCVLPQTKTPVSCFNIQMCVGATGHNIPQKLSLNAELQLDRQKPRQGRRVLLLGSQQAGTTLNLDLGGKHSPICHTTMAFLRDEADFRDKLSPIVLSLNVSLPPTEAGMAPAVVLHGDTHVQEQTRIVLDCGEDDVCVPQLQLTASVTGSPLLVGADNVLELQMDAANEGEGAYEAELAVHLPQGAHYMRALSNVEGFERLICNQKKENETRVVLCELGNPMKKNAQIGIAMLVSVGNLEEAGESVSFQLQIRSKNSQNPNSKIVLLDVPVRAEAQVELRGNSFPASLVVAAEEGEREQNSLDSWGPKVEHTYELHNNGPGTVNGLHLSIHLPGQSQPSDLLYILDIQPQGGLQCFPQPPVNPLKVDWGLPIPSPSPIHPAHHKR
Sequence of Integrin alpha-IIb/beta-3 (P08514 891-1039 limits assumed): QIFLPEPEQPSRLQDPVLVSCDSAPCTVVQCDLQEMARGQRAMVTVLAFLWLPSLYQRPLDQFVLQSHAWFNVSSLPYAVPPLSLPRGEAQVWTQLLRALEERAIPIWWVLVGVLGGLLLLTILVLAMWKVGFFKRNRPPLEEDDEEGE

In the case of `CC1CCN(C(=O)[C@H](CCCNc2ccc(N)cn2)NS(=O)(=O)c2cccc3c(N(C)C)cccc23)CC1`, the Ki0 [1] is reported as 360 nM.
With `NC(N)=NCCCC[C@H](N)C(=O)NCC(=O)N[C@@H](CC(=O)O)C(=O)N[C@@H](Cc1cc2ccccc2[nH]1)C(=O)O` (HELM PEPTIDE1{[N=C(N)NCCCC[C@H](N)C(=O)[*:2]].G.D.[O=C(O)[C@H](Cc1cc2ccccc2[nH]1)N[*:1]]}$$$$V2.0) the IC50 [2] was 1.7 µM.
In the case of `NC(N)=NCCCCNC(=O)[C@@H]1CCCN1C(=O)[C@H](N)Cc1ccccc1` (HELM PEPTIDE1{[dF].P.[N=C(N)NCCCCN[*:1]]}$$$$V2.0), the Ki [3] is reported as 0.18 µM.
